According to ChEMBL document CHEMBL2074481, “Regulation of rat multidrug resistance protein 2 by classes of prototypical microsomal enzyme inducers that activate distinct transcription pathways” (Toxicol Sci, 2002):

Biological target: ATP-binding cassette sub-family C member 2 (Rattus norvegicus, UniProt Q63120)
Assay: TP_TRANSPORTER: Western in vivo, liver of SD rat
Type: functional, organism-based, Sprague-Dawley

Chain of ATP-binding cassette sub-family C member 2 (Q63120 whole entry): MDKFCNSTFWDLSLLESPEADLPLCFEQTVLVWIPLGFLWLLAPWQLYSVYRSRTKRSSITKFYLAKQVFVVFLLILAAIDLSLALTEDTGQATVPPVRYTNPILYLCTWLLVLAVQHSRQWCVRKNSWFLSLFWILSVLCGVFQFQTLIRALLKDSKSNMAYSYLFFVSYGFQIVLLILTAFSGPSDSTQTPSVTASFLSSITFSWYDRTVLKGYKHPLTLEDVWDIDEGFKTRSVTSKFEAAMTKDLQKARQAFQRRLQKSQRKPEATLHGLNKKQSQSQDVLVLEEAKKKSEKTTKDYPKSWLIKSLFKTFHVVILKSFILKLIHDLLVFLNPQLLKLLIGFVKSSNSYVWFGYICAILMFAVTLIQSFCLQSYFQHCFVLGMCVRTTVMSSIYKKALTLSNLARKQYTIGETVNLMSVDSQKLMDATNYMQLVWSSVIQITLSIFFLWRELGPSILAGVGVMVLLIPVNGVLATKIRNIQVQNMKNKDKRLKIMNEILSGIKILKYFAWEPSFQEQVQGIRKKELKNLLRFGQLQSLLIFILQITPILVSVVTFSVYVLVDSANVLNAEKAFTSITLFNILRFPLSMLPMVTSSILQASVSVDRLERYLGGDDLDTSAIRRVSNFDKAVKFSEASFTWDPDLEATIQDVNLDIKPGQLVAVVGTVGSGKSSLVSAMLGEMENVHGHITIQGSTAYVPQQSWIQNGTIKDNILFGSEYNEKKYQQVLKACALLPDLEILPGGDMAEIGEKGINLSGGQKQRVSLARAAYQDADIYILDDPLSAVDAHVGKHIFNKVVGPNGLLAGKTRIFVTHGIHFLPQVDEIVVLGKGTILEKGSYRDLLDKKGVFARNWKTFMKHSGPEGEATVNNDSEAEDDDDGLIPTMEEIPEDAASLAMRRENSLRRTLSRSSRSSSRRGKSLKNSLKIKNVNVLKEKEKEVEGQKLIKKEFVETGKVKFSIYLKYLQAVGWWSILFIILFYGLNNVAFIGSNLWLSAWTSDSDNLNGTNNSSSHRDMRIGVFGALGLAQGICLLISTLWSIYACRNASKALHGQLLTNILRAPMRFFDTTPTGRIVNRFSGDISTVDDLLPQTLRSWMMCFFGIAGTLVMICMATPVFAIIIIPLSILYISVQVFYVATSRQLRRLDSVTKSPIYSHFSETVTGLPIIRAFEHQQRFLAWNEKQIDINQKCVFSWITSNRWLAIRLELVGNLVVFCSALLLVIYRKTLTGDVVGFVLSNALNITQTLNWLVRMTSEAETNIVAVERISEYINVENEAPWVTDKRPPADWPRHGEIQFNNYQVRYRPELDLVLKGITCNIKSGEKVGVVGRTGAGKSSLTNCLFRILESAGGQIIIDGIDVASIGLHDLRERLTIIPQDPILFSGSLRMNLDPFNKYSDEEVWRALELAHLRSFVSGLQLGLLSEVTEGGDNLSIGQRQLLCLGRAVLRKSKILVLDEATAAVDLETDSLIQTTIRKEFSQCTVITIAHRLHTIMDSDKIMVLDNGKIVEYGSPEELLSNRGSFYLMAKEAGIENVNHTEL

| SMILES | Activity |
| --- | --- |
| CCOc1ccc2c(c1)C(C)=CC(C)(C)N2 [E324] | inducer [+] |
| CC(=O)S[C@@H]1CC2=CC(=O)CC[C@]2(C)[C@H]2CC[C@@]3(C)[C@@H](CC[C@@]34CCC(=O)O4)[C@H]12 [SPIRONOLACTONE] | inducer [+] |
